Here are results for one sequence from patent US10793601B2, “Therapeutic spalt-like transcription factor 4 (SALL4) peptide” (National University of Singapore, priority 2016, dated 2020).

Data set [1] concerns PLC8024 tumor xenografts. The data set is described as follows: PLC8024 xenograft (Sorafenib-resistant HCC). It counts as in vivo, mice. As for the experimental part: FIGS. 9A-9E. Clinical significance of PEN-FFW compared to Sorafenib. FIG. 9A: PEN-FFW treated SNU398 tumor xenografts were compared to that of Sorafenib treated xenografts. FIG. 9B: PEN-FFW treated PLC8024 tumor xenografts were compared to that of Sorafenib treated xenografts. Mice body weight was measured to access toxicity of various peptides. FIG. 9C: Body weight of mice at day 17. FIG. 9D: Differences of body weight compared to day 0 (As indicated by the arrow in far left of FIG. 7A). FIG. 9E: Body weight of mice at day 19th in the experiment shown in FIG. 9A comparing effect of Sorafenib and PEN-FFW. Data represent mean±s.d. (n=5).
Clinical significance of PEN-FFW was studied in vivo by benchmarking against current therapy using Sorafenib. PEN-FFW treated SNU398 tumor xenografts were compared to that of Sorafenib treated xenografts (FIG. 9A). […] Potential therapeutic effect of PEN-FFW in HCC patients that are refractory to Sorafenib treatment was studied also studied in vivo. using a HCC cell line, PLC8024 which is SALL4 positive, CD133+ and is both chemo- and radio-resistant (Li et al., BMC Cancer 2016, 16, 15; Ma et al., Oncogene 2008, 27: 1749-1758), for the xenograft study.

The conditions of data set [2]: mouse, in vivo.
Description: (§1) Mice were exposed to intraperitoneal (IP) administration of PEN-FFW (30 mg/kg) or vehicle (10% DMSO) every alternate day over the course of 17 days to a cumulative dose of 270 mg/kg.
(§2) Toxicity of PEN-FFW was studied in vivo in C57BL/6 mice (n=4). Theses mice were exposed to intraperitoneal (IP) administration of PEN-FFW (30 mg/kg) or vehicle (10% DMSO) every alternate day over the course of 17 days to a cumulative dose of 270 mg/kg. […] After a 7-day washout period, complete blood counts and liver function assay tests were performed, and organs were harvested for histology. Potential liver injury caused by the peptide treatment was studied by testing serum AST (Aspartate Aminotransferase) and ALT (Alanine Aminotransferase) levels.
(§3) 6-8-week old female C57BL mice were given PEN-FFW (30 mg/kg) (n=3) or DMSO control (n=2) every alternate day, for a total of 17 day, to a cumulative dose of 270 mg/kg. The mice were observed and weighted throughout the period. A 7 days wash out period were given before the mice were sacrificed with their blood and organs collected. Blood count were perform immediately with Celltact MEK6450 (Nihon Kohden, Japan), and serum were subjected for ALT and AST assay on the same day. ALT and AST were performed according to the manufacturer's protocol (Sigma-Aldrich, Merck, Germany). The organs were fixed with neutral buffered Formalin and embedded in paraffin. […]
Data set [3] relates to SNU398 cells. The data set is described as follows: Cell viability assay in SNU398 cells. It counts as cell-based. The conditions noted are these: ratio of EC50, SNU398. The method, then: FIGS. 3A-3E. Key residues involved in SALL4 (1-12)-RBBp4 binding. […] The difference in the binding free energy (ΔΔGbind) of the alanine mutants (ΔGmutant, Ala7 was mutated to glycine) and wild type (ΔGwild type) was calculated (ΔΔGbind=ΔGmutant−ΔGwild type). ΔΔGbind was tabulated (left) and plotted in a bar chart (right). […] Mutated residues are highlighted in red. The IC50 of each peptide, including WT, was determined by Fluorescence Polarization (FP). Different concentrations of each peptide were titrated into a mixture of 0.04 μM RBBp4 and 0.01 μM of C-labelled FITC-SALL4 WT peptide. Polarization was measured in mP. […] Pep-1 carrier was added to the peptide to facilitate cellular penetration of the peptides.
FIGS. 5A-5B. Development of a potent therapeutic peptide FFW.
SNU398 was grown in RPMI supplemented with 10% fetal bovine serum (FBS) at 37° C. in a humidified atmosphere of 5% CO2. 3000 cells were seeded in each well of a 96 well plate with 100 μL of medium. Before peptide treatment, cells were washed twice with PBS and treated with different concentrations of peptide in OPTIMEM (LifeTech). Media was added after 4 hrs of incubation at 37° C., and cells incubated for another 68 hrs. Tetrazolium (CellTiter96 AQueous One Solution Cell Proliferation Assay, Promega) was added after 72 hrs incubation with the peptides, and the plate was read at a plate reader at 490 nm after 1 hr of incubation in the dark at 37° C.

For data set [4], the system named is SNU387 cells. In words: Cell viability assay in SNU387 cells (no SALL4 expression). It counts as cell-based. Conditions: cell viability after 72 hr. The method, then: FIGS. 6A-6B. Therapeutic window of PEN-FFW in HCC cell lines. FIG. 6A: Peptides were added to HCC cell line SNU398 with high expression of SALL4. FIG. 6B: HCC cell line SNU387 with no expression of SALL4, and cell viability was measured after 72 hr of incubation.
The efficacies of the FFW, WT and MUT peptides were compared at the cellular level and in mice. A penetratin sequence (PEN) was attached to the N-terminus of each peptide to facilitate cell penetration in vitro. […] The therapeutic window of PEN-FFW in SALL4 expressing HCC cells was accessed in SNU387 cells, a HCC line with undetectable level of SALL4, as well as SNU398. The MUT and WT SALL4 peptides were also included in this assay for comparison (FIGS. 6 A & B).

Data set [5] in a line: in vitro. Conditions: human, plasma, pH 7.4.
Description: PEN-FFW was incubated with human plasma (pH7.4) at 37° C. over a 24 hour period (5 timepoints). Incubations were performed at a concentration of 1 μM (final DMSO concentration 2.5%). Reactions were terminated at 0, 5, 10, 15, 30 min, or 0, 1, 2, 4 and 24 hour, by addition of 2 volumes of methanol containing 1% Formic acid. The samples were centrifuged (2500 rpm, 45 min, 4° C.) and the supernatants diluted with 2 volumes of 0.2% Formic acid (aq) (containing Metoprolol (internal standard)). […] The percentage of parent peptide remaining at each time point relative to the 0 min sample was calculated from LC-MS/MS peak area ratios (compound peak area/internal standard peak area).
Data set [6] in a line: Toxicity study, repeated IP administration. Conditions: 30 mg/kg IP every alternate day, 17 days, cumulative 270 mg/kg.
Description: as §1, §2, §3

Ends that are not written are not given here. A value given as a limit tells only on which side of the number the result lay.

As a reminder, the share remaining is what is left of the initial amount, in per cent. Turning to RQIKIWFQNRRMKWKKRRKFAKFQWI [PEN-FFW], in data set [1], the tumor inhibitory effect result is recorded as “minimal tumor inhibitory effect”. Further, the “tissue damage by microscopic examination of major organs” value in data set [2] was “No tissue damage was observed”. The “improvement as compared with PEN-WT” value in data set [3] amounted to 4 fold. Also, in data set [4], the “specificity SNU398 (SALL4 high) versus SNU387 (no SALL4)” value is on record as “specificity of PEN-FFW in targeting SALL4-high HCC cells (SNU398)”. In data set [5], this sequence had an amount remaining at 0.5 h, 1 μM of more than 90%; an amount remaining at 4 h, 1 μM of more than 50%; a share remaining at 24 h, 1 μM of approximately 20%. For the same sequence, the “signs of toxicity (weight loss, lethargy, loss of mobility)” value in data set [6] is listed as “did not exhibit notable signs of toxicity”.
